Experiment: xn = mol fraction of the nth substance listed

CCC(C)=O + CC(C)O
101 kPa
Details	viscosity [mPa·s]
308.15 K, x1 = 0.1282	1.095
313.15 K, x1 = 0.0595	1.165

CC(=O)C(=O)O + CC(C)[C@@H]1CC[C@@H](C)C[C@H]1O
100 kPa, x2 = 0.67
Details	viscosity [mPa·s]
293.15 K	44.64
298.15 K	29.95
303.15 K	21.24
308.15 K	15.67
313.15 K	11.88
318.15 K	9.36
323.15 K	7.511

COC(C)=O + CC(O)CO
Details	viscosity [mPa·s]
298.15 K, 101 kPa, x1 = 0.251	12.35

COc1ccccc1N + CCC(=O)CC
viscosity [mPa·s], 100 kPa
Details	x1 = 0.0991	x1 = 0.1998	x1 = 0.2865	x1 = 0.3698	x1 = 0.4502	x1 = 0.5469	x1 = 0.6601	x1 = 0.7965	x1 = 0.8805
303.15 K	0.905	1.383	1.793	2.178	2.544	2.98	3.48	4.069	4.425
308.15 K	0.85	1.3	1.681	2.038	2.379	2.784	3.249	3.796	4.123
313.15 K	0.795	1.217	1.569	1.897	2.213	2.586	3.016	3.52	3.819

COc1ccccc1N + CCC(=O)O
viscosity [mPa·s], 100 kPa
Details	x1 = 0.1097	x1 = 0.183	x1 = 0.2628	x1 = 0.3502	x1 = 0.4802	x1 = 0.5897	x1 = 0.6693	x1 = 0.7549	x1 = 0.8961
303.15 K	1.402	1.697	2.017	2.367	2.884	3.317	3.631	3.967	4.518
308.15 K	1.3	1.575	1.873	2.198	2.679	3.082	3.373	3.685	4.197
313.15 K	1.197	1.452	1.727	2.028	2.472	2.844	3.113	3.401	3.873
318.15 K	1.097	1.333	1.587	1.865	2.275	2.619	2.867	3.132	3.567

COc1ccccc1N + CCC(C)=O
viscosity [mPa·s], 100 kPa
Details	x1 = 0.0814	x1 = 0.1724	x1 = 0.2543	x1 = 0.3412	x1 = 0.4394	x1 = 0.5191	x1 = 0.6354	x1 = 0.7587	x1 = 0.8677
303.15 K	0.785	1.225	1.615	2.024	2.477	2.84	3.362	3.906	4.373
308.15 K	0.727	1.145	1.51	1.888	2.31	2.648	3.136	3.642	4.073
313.15 K	0.669	1.064	1.403	1.751	2.142	2.455	2.907	3.376	3.77

C1CCCCC1 + CCC(C)O
viscosity [mPa·s], 101.33 kPa
Details	298.15 K	303.15 K	313.15 K
x1 = 0.0998	2.334	–	1.442
x1 = 0.2045	1.841	–	1.19
x1 = 0.3002	1.524	–	1.023
x1 = 0.4007	1.285	–	0.8968
x1 = 0.4995	1.116	–	0.8098
x1 = 0.6	1.001	–	0.7497
x1 = 0.7028	0.9323	–	0.7106
x1 = 0.8005	0.8895	–	0.6896
x1 = 0.9036	0.872	–	0.6801
x2 = 0.1002	–	0.8606	–
x2 = 0.1978	–	0.9196	–
x2 = 0.3031	–	1.004	–
x2 = 0.4019	–	1.107	–
x2 = 0.4961	–	1.244	–
x2 = 0.5974	–	1.435	–
x2 = 0.695	–	1.68	–
x2 = 0.799	–	1.996	–
x2 = 0.8924	–	2.321	–

CCC(C)=O + CCC(C)O
viscosity [mPa·s], 101.3 kPa
Details	x2 = 0.1018	x2 = 0.1991	x2 = 0.2984	x2 = 0.397	x2 = 0.4966	x2 = 0.5968	x2 = 0.6985	x2 = 0.8007	x2 = 0.9003
298.15 K	0.423	0.461	0.511	0.578	–	0.804	1.005	1.332	1.896
308.15 K	0.38	0.415	0.452	0.505	0.576	0.677	0.824	–	1.426
318.15 K	0.344	0.369	0.402	0.445	0.501	0.578	0.686	0.849	1.099

COC(C)=O + CCC(C)O
298.15 K, 101.33 kPa
Details	viscosity [mPa·s]
x1 = 0.1056	1.854
x1 = 0.2017	1.275
x1 = 0.3076	0.921
x1 = 0.3884	0.771
x1 = 0.4935	0.64
x1 = 0.5697	0.559
x1 = 0.6653	0.485
x1 = 0.7801	0.429
x1 = 0.876	0.411

— the CheMixHub viscosity set
